According to the supplement of paper PMC11451515:

Experiments:
Details in all cases: 48 h
[1] = test system: NOMO1; experiment: cell viability relative to DMSO control; higher = less cytotoxic
Outline: (§1)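 Library compounds in DMSO were pin-dosed into 1536-well plates (5 μl) holding NOMO1 or SEM (500 cells/well) or P12-Ichikawa (1000 cells/well) leukemia cells, across an 11-point threefold series of 47 μM to 0.79 nM. Each cell line had been adapted for at least four passages in each medium. CellTiter-Glo One luminescence was read after 48 h at 37°C. Viability is the per-plate percentage relative to DMSO wells, with cell-free wells as background.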

[2] = test system: P12-Ichikawa; experiment: as above
Outline: as §1

[3] = test system: SEM cells; experiment: as above
Outline: as §1

[4] = test system: NOMO1; experiment: AUC of viability dose-response curve (% viability x log10 dose units); higher = less sensitive
Outline: (§2)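 Leukemia cells adapted to each medium (500 or 1000 cells/well, 1536-well plates) were exposed to library compounds in DMSO for 48 h at 37°C at 11 threefold doses, 47 μM to 0.79 nM. Luminescence by CellTiter-Glo One was normalised per plate to DMSO and cell-free wells, then fitted with a four-parameter log-logistic curve on log10 dose. Curves above full viability were scaled and quality-control failures removed before area under the curve was integrated by trapezoidal rule.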

[5] = test system: P12-Ichikawa; experiment: as above
Outline: as §2

[6] = test system: SEM cells; experiment: as above
Outline: as §2

Oc1ccc(-c2nc(-c3ccncc3)c(-c3ccc(F)cc3)[nH]2)cc1
cell viability [%]
Details	[1]	[2]	[3]
HPLM + 10% dialyzed FBS, 0.000781 µM	99.7	115	83.4
HPLM + 10% dialyzed FBS, 0.00234 µM	113	112	90.6
HPLM + 10% dialyzed FBS, 0.00702 µM	122	118	102
HPLM + 10% dialyzed FBS, 0.0211 µM	117	114	107
HPLM + 10% dialyzed FBS, 0.0632 µM	125	124	104
HPLM + 10% dialyzed FBS, 0.19 µM	135	120	69.1
HPLM + 10% dialyzed FBS, 0.569 µM	147	130	42.4
HPLM + 10% dialyzed FBS, 1.71 µM	121	115	45.4
HPLM + 10% dialyzed FBS, 5.12 µM	19.1	64.3	7.43
HPLM + 10% dialyzed FBS, 15.4 µM	2.63	13	2.46
HPLM + 10% dialyzed FBS, 46.1 µM	1.72	5.07	0.872
RPMI 5 mM glucose + 10% FBS, 0.000781 µM	100	99.2	105
RPMI 5 mM glucose + 10% FBS, 0.00234 µM	106	99.7	86.9
RPMI 5 mM glucose + 10% FBS, 0.00702 µM	106	117	89.5
RPMI 5 mM glucose + 10% FBS, 0.0211 µM	112	111	93.6
RPMI 5 mM glucose + 10% FBS, 0.0632 µM	116	111	76.1
RPMI 5 mM glucose + 10% FBS, 0.19 µM	135	126	54.7
RPMI 5 mM glucose + 10% FBS, 0.569 µM	150	117	34.9
RPMI 5 mM glucose + 10% FBS, 1.71 µM	125	115	30.3
RPMI 5 mM glucose + 10% FBS, 5.12 µM	118	98.8	1.32
RPMI 5 mM glucose + 10% FBS, 15.4 µM	18.4	60.7	0.723
RPMI 5 mM glucose + 10% FBS, 46.1 µM	1.54	2.19	0.55
RPMI 5 mM glucose + 10% dialyzed FBS, 0.000781 µM	105	103	114
RPMI 5 mM glucose + 10% dialyzed FBS, 0.00234 µM	124	112	99.9
RPMI 5 mM glucose + 10% dialyzed FBS, 0.00702 µM	126	113	104
RPMI 5 mM glucose + 10% dialyzed FBS, 0.0211 µM	110	119	98.8
RPMI 5 mM glucose + 10% dialyzed FBS, 0.0632 µM	122	123	83
RPMI 5 mM glucose + 10% dialyzed FBS, 0.19 µM	133	113	48.4
RPMI 5 mM glucose + 10% dialyzed FBS, 0.569 µM	136	130	41.3
RPMI 5 mM glucose + 10% dialyzed FBS, 1.71 µM	128	116	32.8
RPMI 5 mM glucose + 10% dialyzed FBS, 5.12 µM	130	82.7	5.58
RPMI 5 mM glucose + 10% dialyzed FBS, 15.4 µM	36.8	46	1.19
RPMI 5 mM glucose + 10% dialyzed FBS, 46.1 µM	1.72	6.46	0.981

AUC of viability dose-response curve
Details	[4]	[5]	[6]
HPLM + 10% dialyzed FBS	366	388	289
RPMI 5 mM glucose + 10% FBS	412	427	251
RPMI 5 mM glucose + 10% dialyzed FBS	420	410	247

N[S+](=O)([O-])c1cc2c(cc1Cl)NCN[S+]2(=O)[O-]
cell viability [%]
Details	[1]	[2]	[3]
HPLM + 10% dialyzed FBS, 0.000781 µM	111	94.4	92.5
HPLM + 10% dialyzed FBS, 0.00234 µM	97.3	103	102
HPLM + 10% dialyzed FBS, 0.00702 µM	105	104	101
HPLM + 10% dialyzed FBS, 0.0211 µM	109	110	94.6
HPLM + 10% dialyzed FBS, 0.0632 µM	122	112	104
HPLM + 10% dialyzed FBS, 0.19 µM	111	116	111
HPLM + 10% dialyzed FBS, 0.569 µM	122	116	114
HPLM + 10% dialyzed FBS, 1.71 µM	121	113	109
HPLM + 10% dialyzed FBS, 5.12 µM	103	111	114
HPLM + 10% dialyzed FBS, 15.4 µM	105	110	121
HPLM + 10% dialyzed FBS, 46.1 µM	102	104	107
RPMI 5 mM glucose + 10% FBS, 0.000781 µM	108	111	96.2
RPMI 5 mM glucose + 10% FBS, 0.00234 µM	109	115	115
RPMI 5 mM glucose + 10% FBS, 0.00702 µM	114	110	109
RPMI 5 mM glucose + 10% FBS, 0.0211 µM	109	125	104
RPMI 5 mM glucose + 10% FBS, 0.0632 µM	101	118	110
RPMI 5 mM glucose + 10% FBS, 0.19 µM	113	126	107
RPMI 5 mM glucose + 10% FBS, 0.569 µM	119	126	114
RPMI 5 mM glucose + 10% FBS, 1.71 µM	117	121	119
RPMI 5 mM glucose + 10% FBS, 5.12 µM	117	108	124
RPMI 5 mM glucose + 10% FBS, 15.4 µM	112	118	116
RPMI 5 mM glucose + 10% FBS, 46.1 µM	98.8	120	120
RPMI 5 mM glucose + 10% dialyzed FBS, 0.000781 µM	109	110	88.4
RPMI 5 mM glucose + 10% dialyzed FBS, 0.00234 µM	101	106	100
RPMI 5 mM glucose + 10% dialyzed FBS, 0.00702 µM	112	108	112
RPMI 5 mM glucose + 10% dialyzed FBS, 0.0211 µM	106	105	124
RPMI 5 mM glucose + 10% dialyzed FBS, 0.0632 µM	122	116	107
RPMI 5 mM glucose + 10% dialyzed FBS, 0.19 µM	136	105	124
RPMI 5 mM glucose + 10% dialyzed FBS, 0.569 µM	117	111	107
RPMI 5 mM glucose + 10% dialyzed FBS, 1.71 µM	124	116	134
RPMI 5 mM glucose + 10% dialyzed FBS, 5.12 µM	111	118	117
RPMI 5 mM glucose + 10% dialyzed FBS, 15.4 µM	112	107	115
RPMI 5 mM glucose + 10% dialyzed FBS, 46.1 µM	101	104	151

AUC of viability dose-response curve
Details	[4]	[5]	[6]
HPLM + 10% dialyzed FBS	468	466	450
RPMI 5 mM glucose + 10% FBS	477	468	442
RPMI 5 mM glucose + 10% dialyzed FBS	470	474	412

Clc1ccc2c(N3CCN(CCCN4CCN(c5ccnc6cc(Cl)ccc56)CC4)CC3)ccnc2c1
cell viability [%], [3]
Details	HPLM + 10% dialyzed FBS	RPMI 5 mM glucose + 10% dialyzed FBS
0.000781 µM	96.6	118
0.00234 µM	111	131
0.00702 µM	125	112
0.0211 µM	102	120
0.0632 µM	120	119
0.19 µM	120	128
0.569 µM	135	134
1.71 µM	130	146
5.12 µM	133	130
15.4 µM	102	109
46.1 µM	84.5	69.9

AUC of viability dose-response curve
Details	[4]	[5]	[6]
HPLM + 10% dialyzed FBS	469	456	464
RPMI 5 mM glucose + 10% FBS	457	448	459
RPMI 5 mM glucose + 10% dialyzed FBS	465	442	459
